Laboratory results from paper PMC7151078, “A Novel NMDA Receptor Antagonist Protects against Cognitive Decline Presented by Senescent Mice” (Pharmaceutics, 2020).

Tests used:
[1] = target: T1, CYP2D6 (Homo sapiens, UniProt P10635); assay: Cytochrome inhibition, fluorescent detection (AMMC substrate); assay type: in vitro ADME; conditions: recombinant human CYP2D6
T1 construct: host or cells: insect cell microsomes
Procedure: (§1) To screen the inhibition potential of the compounds, recombinant human cytochrome P450 enzymes (CYP1A2, CYP2C9, CYP2C19, CYP2D6, and CYP3A4) and probe substrates were used with the fluorescent detection method. Incubations were conducted in 200-µL volume 96 well microtiter plates (COSTAR 3915). Addition of cofactor-buffer mixture (KH2PO4 buffer, 1.3 mM NADP+, 3.3 mM MgCl2, 3.3 mM Glucose-6-phosphate and 0.4 U/mL Glucose-6-phosphate Dehydrogenase), supersomes control, standard inhibitors (Furafyline, Tranylzypromine, Ketoconazole, Sulfaphenazole, and Quinidine; from Sigma Aldrich), and test compounds to plates were carried out using a a liquid handling station (Zephyr Caliper). The plate was then pre-incubated at 37 °C for 5 min, and the reaction initiated by the addition of pre-warmed enzyme/substrate (E/S) mix. […] Fluorescence per well was measured using a fluorescence plate reader (Tecan M1000 pro), and the percentage of inhibition was calculated.

[2] = target: T2, CYP1A2 (Homo sapiens, UniProt P05177); assay: Cytochrome inhibition, fluorescent detection (CEC substrate); assay type: in vitro ADME; conditions: recombinant human CYP1A2
T2 construct: host or cells: insect cell microsomes
T2 sequence (P05177 1-516): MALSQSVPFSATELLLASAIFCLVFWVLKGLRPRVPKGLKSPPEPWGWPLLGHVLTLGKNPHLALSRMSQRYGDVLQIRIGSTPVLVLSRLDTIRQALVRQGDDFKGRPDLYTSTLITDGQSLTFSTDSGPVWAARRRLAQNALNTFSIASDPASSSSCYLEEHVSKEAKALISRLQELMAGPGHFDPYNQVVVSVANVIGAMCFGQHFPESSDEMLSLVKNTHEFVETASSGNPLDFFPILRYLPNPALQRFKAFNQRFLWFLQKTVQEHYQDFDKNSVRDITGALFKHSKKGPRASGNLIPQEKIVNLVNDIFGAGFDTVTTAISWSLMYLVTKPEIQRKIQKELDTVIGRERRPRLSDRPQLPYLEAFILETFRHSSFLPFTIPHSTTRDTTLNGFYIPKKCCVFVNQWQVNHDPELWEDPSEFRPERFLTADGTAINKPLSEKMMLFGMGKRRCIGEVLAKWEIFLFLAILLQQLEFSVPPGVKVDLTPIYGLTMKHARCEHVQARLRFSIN
Procedure: as §1

[3] = target: T3, CYP2C19 (Homo sapiens, UniProt P33261); assay: as above; assay type: in vitro ADME; conditions: recombinant human CYP2C19
T3 construct: host or cells: insect cell microsomes
T3 sequence (P33261 whole entry): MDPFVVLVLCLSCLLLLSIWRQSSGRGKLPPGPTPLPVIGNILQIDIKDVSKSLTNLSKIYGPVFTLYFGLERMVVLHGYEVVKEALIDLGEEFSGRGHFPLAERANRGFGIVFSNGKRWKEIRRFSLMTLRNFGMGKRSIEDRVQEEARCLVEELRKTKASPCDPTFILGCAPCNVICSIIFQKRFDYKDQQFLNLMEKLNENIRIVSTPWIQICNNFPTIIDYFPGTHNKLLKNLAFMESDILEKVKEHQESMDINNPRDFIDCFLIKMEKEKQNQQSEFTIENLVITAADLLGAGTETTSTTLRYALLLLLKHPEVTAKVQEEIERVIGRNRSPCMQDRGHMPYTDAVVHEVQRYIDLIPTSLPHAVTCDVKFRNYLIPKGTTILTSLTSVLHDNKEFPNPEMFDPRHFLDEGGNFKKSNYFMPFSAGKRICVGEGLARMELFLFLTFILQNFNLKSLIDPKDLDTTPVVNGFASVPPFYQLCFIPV
Procedure: as §1

[4] = tested on: SAMR1 and SAMP8 mice; assay: proBDNF and mBDNF protein levels in the hippocampus (ELISA); assay type: in vivo, mouse
Procedure: Male SAMR1 and SAMP8 mice (n = 41) with 20-weeks-old were used to carry out cognitive and molecular analysis. The animals were randomly divided into four groups: SAMR1 control (SR1 Ct) group (n = 11), SAMP8 control (SP8 Ct) group (n = 8), SAMR1 treated with RL-208 (SR1 RL-208 (5 mg/Kg)) group (n = 10) and SAMP8 treated with RL-208 (SP8 RL-208 (5 mg/Kg)) group (n = 12). Animals had free access to food and water, under standard temperature conditions (22±2 °C) and 12h:12h light-dark cycles (300 lux/0 lux). RL-208, (3,4,8,9-tetramethyltetracyclo[4.4.0.0^3,9.0^4,8]dec-1-yl)-methylamine hydrochloride, (5 mg/kg/day) was administered through drinking water for four weeks before starting the cognitive test. RL-208 was administered up to euthanasia (Figure 1A). Water consumption was controlled each week for each cage and strain. Afterwards, RL-208 concentration was adjusted accordingly to reach the optimal dose for each cage. Three days after the behavioural and cognitive tests, mice were euthanized by cervical dislocation. Brains were immediately removed from the skull. The hippocampus and cortex were then isolated and frozen in powdered dry ice. They were maintained at −80 °C for further use. Tissue samples were homogenized in lysis buffer containing phosphatase and protease inhibitors (Cocktail II, Sigma). Total protein levels were obtained, and protein concentration was determined by the method of Bradford. The hippocampal determination of pro-Brain-derived neurotrophic factor (proBDNF) and mature brain-derived neurotrophic factor (mBDNF) protein levels was performed using the enzyme-linked immunosorbent assay (ELISA) kit (Biosensis) according to the manufacturer’s instructions.

[5] = tested on: SAMR1 and SAMP8 mice; assay: Oxidative stress: hydrogen peroxide levels (fluorimetric kit); assay type: in vivo, mouse; conditions: hippocampus, both RL-208 treated mice groups vs control groups
Procedure: Male SAMR1 and SAMP8 mice (n = 41) with 20-weeks-old were used to carry out cognitive and molecular analysis. The animals were randomly divided into four groups: SAMR1 control (SR1 Ct) group (n = 11), SAMP8 control (SP8 Ct) group (n = 8), SAMR1 treated with RL-208 (SR1 RL-208 (5 mg/Kg)) group (n = 10) and SAMP8 treated with RL-208 (SP8 RL-208 (5 mg/Kg)) group (n = 12). Animals had free access to food and water, under standard temperature conditions (22±2 °C) and 12h:12h light-dark cycles (300 lux/0 lux). RL-208, (3,4,8,9-tetramethyltetracyclo[4.4.0.0^3,9.0^4,8]dec-1-yl)-methylamine hydrochloride, (5 mg/kg/day) was administered through drinking water for four weeks before starting the cognitive test. RL-208 was administered up to euthanasia (Figure 1A). Water consumption was controlled each week for each cage and strain. Afterwards, RL-208 concentration was adjusted accordingly to reach the optimal dose for each cage. […]

[6] = tested on: NMDAR; design: method as in PMID 29767953; conditions: early preclinical in vitro experiments; cited from earlier work

T1 sequence (P10635 whole entry): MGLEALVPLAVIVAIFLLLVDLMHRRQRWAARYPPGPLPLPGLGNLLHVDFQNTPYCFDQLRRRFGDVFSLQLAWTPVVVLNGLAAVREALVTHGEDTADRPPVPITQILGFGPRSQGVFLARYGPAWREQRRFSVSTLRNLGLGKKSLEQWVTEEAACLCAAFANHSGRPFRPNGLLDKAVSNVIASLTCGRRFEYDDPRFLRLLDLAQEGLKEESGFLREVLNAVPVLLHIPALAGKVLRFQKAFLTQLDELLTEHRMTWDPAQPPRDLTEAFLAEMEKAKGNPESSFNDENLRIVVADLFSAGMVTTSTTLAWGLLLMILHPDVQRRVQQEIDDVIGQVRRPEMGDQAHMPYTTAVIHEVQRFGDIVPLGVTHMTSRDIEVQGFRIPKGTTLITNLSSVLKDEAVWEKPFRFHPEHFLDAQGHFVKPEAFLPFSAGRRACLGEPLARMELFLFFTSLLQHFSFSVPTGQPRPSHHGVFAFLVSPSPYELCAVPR

CC12CC3CC1(C)C1(C)CC3(CN)CC21C.Cl [RL-208, (3,4,8,9-tetramethyltetracyclo [4.4.0.0^3,9.0^4,8]dec-1-yl)methylamine hydrochloride]
CYP2D6 inhibition [1]: 10 ± 3%
CYP1A2 inhibition [2]: 5 ± 2%
CYP2C19 inhibition [3]: 23 ± 1%
mature BDNF protein levels ([4]; RL-208 treated mice vs control groups): significant augment
proBDNF protein levels ([4]; SP8 treated vs control): significant reduction
proBDNF protein levels (differences) ([4]; SR1 strain): not significant
hydrogen peroxide (ROS) levels [5]: significant decrease
IC50 [6]: ~1000 nM
